Values joined by “and” are separate entries in the source; they are usually repeats but may differ in a detail not shown here. Equal entries are not always repeated. Where two headings read alike, the source gives them in different places.
Tests used:
KRAS G12D = KRAS G12D (Homo sapiens (Human), UniProt P01116, G12D); test: KRAS G12D LoEnz Biochemical Assay, BODIPY-GDP Exchange TR-FRET (SOS1-mediated nucleotide exchange); details: read-out: KRas (G12D) GDP HTRF IC50
KRAS WT [1] = target: T1, KRAS WT (Homo sapiens (Human), UniProt P01116); test: KRAS WT Biochemical Assay, BODIPY-GDP Exchange TR-FRET (Example 502; 0.06 nM KRAS WT, 15 nM GDP, 300 nM SOS1, 120-minute incubation); details: read-out: KRas HTRF IC50
T1 sequence (P01116-2 other isoform, or with tags, fused parts or gaps): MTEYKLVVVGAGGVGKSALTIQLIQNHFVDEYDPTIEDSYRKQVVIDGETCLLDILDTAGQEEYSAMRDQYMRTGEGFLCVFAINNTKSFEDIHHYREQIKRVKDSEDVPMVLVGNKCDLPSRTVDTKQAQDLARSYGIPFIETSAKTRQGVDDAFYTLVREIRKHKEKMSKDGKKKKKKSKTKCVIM
Outline: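 IC50 from a 4-parameter Hill fit of percent inhibition, itself the TR-FRET 520/490 nm ratio scaled between DMSO and a fully inhibiting control. Reaction: 300 nM SOS1 and 300 nM BODIPY-GDP added to preformed 0.06 nM KRAS WT/15 nM GDP/Tb-streptavidin complex; 120 min incubation; pH 7.5 HEPES, MgCl2, DTT.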

[2] = tested on: AsPC-1 (homozygous mutant KRAS G12D human pancreatic cell line); test: KRAS 3D-Cell Proliferation Assay, AsPC-1 (CellTiter-Glo 3D, 7 days); format: cell-based; details: AsPC-1 3D culture, read-out: Prolif AsPC-1 3D ATP IC50
Method: (§1) Example 503: KRAS 3D-Cell Proliferation Assays. Cellular potencies of compounds are assessed by evaluating inhibition of proliferation in 3D cultures of homozygous mutant KRAS G12D human pancreatic cell lines (AsPC-1 and HPAC) as compared to a KRAS wild type human lung adenocarcinoma cell line (PC-9 and/or H1975). Cells are seeded into 384-well black round-bottom, ultra-low attachment assay plates in 50 uL cell growth medium (RPMI-1640 with 10% fetal bovine serum and 2 mM L-glutamine). After overnight incubation at 37° C. and 5% CO2, compounds solubilized in DMSO are added as dilution series to the wells in a total volume of 150 nL (0.3% DMSO final). The cells are incubated for 7 days at 37° C. and 5% CO2. Cell proliferation is quantitated by addition of 40 uL/well of CellTiter-GloO 3D (Promega), and the well contents are mixed 20× at high speed using liquid handling automation workstation (Bravo with 384-well head) and centrifuged at 1500 rpm for 2 minutes to eliminate bubbles. This reagent in combination with mechanical disruption releases the cellular ATP to promote activity in a luciferase-based enzyme/substrate chemiluminescent detection system. After a 30-minute incubation under ambient conditions with shaking and an additional 10 minutes without shaking, the luminescence is read on a plate reader (e.g. EnVision [PerkinElmer]). The results are normalized to percent inhibition based on the following control samples: DMSO (0% inhibition) and 1 uM staurosporine (100% inhibition). The normalized luminescence results are plotted against compound concentration, and the data are fit to a 4-parameter Hill equation to determine the IC50 values.

[3] = tested on: HPAC (homozygous mutant KRAS G12D human pancreatic cell line); test: KRAS 3D-Cell Proliferation Assay, HPAC (CellTiter-Glo 3D, 7 days); format: cell-based; details: HPAC 3D culture, read-out: Prolif HPAC 3D ATP IC50
Outline: (§2)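 Cells were grown as 3D cultures in ultra-low attachment plates in RPMI-1640 with 10% FBS and 2 mM glutamine. Compound dilution series (0.3% DMSO final) were added after overnight culture, and plates were incubated for 7 days at 37 °C. CellTiter-Glo 3D luminescence was normalised to DMSO and 1 uM staurosporine, and IC50 was taken from 4-parameter Hill fits.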

[4] = tested on: H1975 (KRAS wild type human lung adenocarcinoma cell line); test: KRAS 3D-Cell Proliferation Assay, H1975 (CellTiter-Glo 3D, 7 days); format: cell-based; details: H1975 3D culture, read-out: Prolif H1975 3D ATP IC50
Outline: as §2

KRAS WT [5] = target: T1, KRAS WT; test: KRAS WT Biochemical Assay, BODIPY-GDP Exchange TR-FRET (Example 501; 3 nM KRAS WT, 3 nM SOS1, 60-minute incubation)
Outline: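 SOS1-mediated exchange assay: 3 nM biotin-KRAS WT with terbium-streptavidin, started with 3 nM SOS1 and 300 nM BODIPY-GDP, HEPES pH 7.5 with MgCl2. TR-FRET (520/490 nm) read after 60 min; normalized to DMSO and full-inhibition control, IC50 from 4-parameter Hill fit.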

[6] = tested on: PC-9 (KRAS wild type human lung adenocarcinoma cell line); test: KRAS 3D-Cell Proliferation Assay, PC-9 (CellTiter-Glo 3D, 7 days); format: cell-based; details: PC-9 3D culture, read-out: Prolif PC9 3D ATP IC50
Method: as §1

[7] = read-out: KRas(wt) GDP HTRF IC50

Sequence of KRAS G12D (P01116-2 other isoform, or with tags, fused parts or gaps G12D): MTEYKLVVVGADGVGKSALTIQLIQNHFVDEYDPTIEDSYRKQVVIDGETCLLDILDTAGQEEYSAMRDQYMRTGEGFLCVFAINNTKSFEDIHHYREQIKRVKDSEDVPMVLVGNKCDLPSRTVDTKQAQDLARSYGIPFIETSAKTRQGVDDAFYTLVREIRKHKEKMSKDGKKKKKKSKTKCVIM

Row | SMILES | IC50 (KRAS G12D) | IC50 (KRAS WT [1]) | IC50 ([2]; Homo sapiens, ASPC1, 168 h) | IC50 ([3]; Homo sapiens, HPAC, 168 h) | IC50 ([4]; Homo sapiens, NCI-H1975, 168 h) | IC50 [2] | IC50 [3] | IC50 [4] | IC50 (KRAS WT [5]; read-out: KRas HTRF IC50) | IC50 (KRAS WT [5]; [7]) | IC50 [6] | IC50 ([6]; Homo sapiens, PC-9, 168 h)
1 | Cc1c(F)c(N)cc(-c2nc3c4c(nc(OC[C@]5(CN6CC7(COC7)C6)CC5(F)F)nc4c2F)N2C[C@H]4CC[C@H](N4)[C@H]2[C@H](C)O3)c1C(F)(F)F (mixture of isomers) [165 a, 5-((5S,5aS,6S,9R)-12-((1-((2-Oxa-6-azaspiro[3.3]heptan-6-yl)methyl)-2,2-difluorocyclopropyl)methoxy)-1-fluoro-5-methyl-5a,6,7,8,9,10-hexahydro-5H-4-oxa-3,10a,11,13,14-pentaaza[6,9]methanonaphtho[1,8-ab]heptalen-2-yl)-2-fluoro-3-methyl-4-(trifluoromethyl)aniline] | 0.08 nM | 1.14 nM | 0.6 nM | 0.63 nM | 374 nM | – | – | – | – | – | – | –
2 | Cc1c(F)c(N)cc(-c2nc3c4c(nc(OC[C@]56CCC[C@@H]5N(C)CCC6)nc4c2F)N2C[C@H]4CC[C@H](N4)[C@H]2[C@H](C)O3)c1C(F)(F)F (single isomer, unassigned) [126 (isomer 1)] | 0.1 nM | 0.42 nM | 0.6 nM | 0.51 nM | 770 nM | – | – | – | – | – | – | –
3 | Cc1c(F)c(N)cc(-c2nc3c4c(nc(OC[C@]5(CN6CC7(COC7)C6)CC5(F)F)nc4c2F)N2C[C@H]4CC[C@H](N4)[C@H]2[C@H](C)O3)c1C(F)(F)F (single isomer, unassigned) [165 b] | 0.1 nM | 1.43 nM | – | – | – | 0.849 nM | 0.66 nM | 499 nM | – | – | – | –
4 | Cc1c(F)c(N)cc(-c2nc3c4c(nc(OC[C@@]56CCCN5C[C@H](F)C6)nc4c2F)N2C[C@H]4CC[C@H](N4)[C@@H]2C(C)O3)c1C(F)(F)F (single isomer, unassigned) [237 (isomer 2)] | 0.15 nM | – | 200 nM | – | – | – | – | – | 0.35 nM | – | – | –
5 | Cc1c(F)c(N)cc(-c2nc3c4c(nc(OC[C@]56CCN(C)C5COC6)nc4c2F)N2C[C@H]4CC[C@H](N4)[C@H]2[C@H](C)O3)c1C(F)(F)F (single isomer, unassigned) [258 (isomer 2)] | 0.07 nM | – | 6.9 nM | 2.68 nM | 1550 nM | – | – | – | 11 nM | – | – | –
6 | Cc1cc(N)c(F)c(-c2nc3c4c(nc(OCC56CCN5CC(F)(F)C6)nc4c2F)N2C[C@H]4CC[C@H](N4)[C@H]2[C@H](C)O3)c1 (single isomer, unassigned) [Compound 23] | – | – | – | – | – | 20000 nM | – | – | – | 39500 nM and 94500 nM | – | –
7 | CN1CCC2COc3nc(-c4cc(O)cc5cccc(F)c45)c(F)c4nc(OC[C@@]56CCCN5C[C@H](F)C6)nc(c34)N2CC1 (single isomer, unassigned) [Compound 49] | – | – | 20000 nM | – | – | – | – | – | – | 561 nM and 331 nM | 4240 nM | –
8 | Cc1c(F)c(N)cc(-c2nc3c4c(nc(OC[C@]5(CN6CC7(COC7)C6)CC5(F)F)nc4c2F)N2C[C@H]4CC[C@H](N4)[C@H]2[C@H](C)O3)c1C(F)(F)F (stereo in doubt) [165 c, 5-((5S,5aS,6S,9R)-12-((1-((2-Oxa-6-azaspiro[3.3]heptan-6-yl)methyl)-2,2-difluorocyclopropyl)methoxy)-1-fluoro-5-methyl-5a,6,7,8,9,10-hexahydro-5H-4-oxa-3,10a,11,13,14-pentaaza[6,9]methanonaphtho[1,8-ab]heptalen-2-yl)-2-fluoro-3-methyl-4-(trifluoromethyl)aniline] | 0.09 nM | 2.19 nM | – | – | – | 1.1 nM | 1.09 nM | 481 nM | – | – | – | –
9 | Cc1c(F)c(N)cc(-c2nc3c4c(nc(OC[C@]5(CN6CC7(COC7)C6)CC5(F)F)nc4c2F)N2C[C@H]4CC[C@H](N4)[C@H]2[C@H](C(F)(F)F)O3)c1C(F)(F)F (stereo in doubt) [255 a, 5-((5R,5aS,6S,9R)-12-(((R)-1-((2-oxa-6-azaspiro[3.3]heptan-6-yl)methyl)-2,2-difluorocyclopropyl)methoxy)-1-fluoro-5-(trifluoromethyl)-5a,6,7,8,9,10-hexahydro-5H-4-oxa-3,10a,11,13,14-pentaaza[6,9]methanonaphtho[1,8-ab]heptalen-2-yl)-2-fluoro-3-methyl-4-(trifluoromethyl)aniline] | 0.41 nM | – | 6.6 nM | – | – | – | 1.66 nM | 120 nM | 1.39 nM | – | – | –
10 | Cc1c(F)c(N)cc(-c2nc3c4c(nc(OC[C@]5(CN6CC7(COC7)C6)CC5(F)F)nc4c2F)N2C[C@H]4CC[C@H](N4)[C@H]2[C@H](C(F)(F)F)O3)c1C(F)(F)F (stereo in doubt) [255 b, 5-((5R,5aS,6S,9R)-12-(((R)-1-((2-oxa-6-azaspiro[3.3]heptan-6-yl)methyl)-2,2-difluorocyclopropyl)methoxy)-1-fluoro-5-(trifluoromethyl)-5a,6,7,8,9,10-hexahydro-5H-4-oxa-3,10a,11,13,14-pentaaza[6,9]methanonaphtho[1,8-ab]heptalen-2-yl)-2-fluoro-3-methyl-4-(trifluoromethyl)aniline] | 0.27 nM | – | – | – | – | 4.7 nM | 4.21 nM | 308 nM | 1.17 nM | – | – | –
11 | C=C1CN2CCC[C@@]2(COc2nc3c4c(nc(-c5nc(N)cc(C)c5C(F)(F)F)c(F)c4n2)O[C@@H](C)[C@@H]2[C@@H]4CC[C@H](CN32)N4)C1 [Compound 48, 6-((5S,5aS,6S,9R)-1-fluoro-5-methyl-12-(((S)-2-methylenetetrahydro-1H-pyrrolizin-7a(5H)-yl)methoxy)-5a,6,7,8,9,10-hexahydro-5H-4-oxa-3,10a,11,13,14-pentaaza-6,9-methanonaphtho[1,8-ab]heptalen-2-yl)-4-methyl-5-(trifluoromethyl)pyridin-2-amine] | 0.491 nM | 28.5 nM | – | – | – | – | – | – | – | 10.5 nM | – | 20000 nM
12 | Nc1nc2c(-c3nc4c5c(ncnc5c3F)N3C[C@H]5CC[C@H](N5)[C@H]3CO4)ccc(F)c2s1 [Compound 55, 7-fluoro-4-((5aS,6S,9R)-1-fluoro-5a,6,7,8,9,10-hexahydro-5H-4-oxa-3,10a,11,13,14-pentaaza-6,9-methanonaphtho[1,8-ab]heptalen-2-yl)benzo[d]thiazol-2-amine] | 22200 nM | – | 20000 nM | – | – | – | – | – | – | 200000 nM | – | –
13 | C[C@@H]1Oc2nc(-c3cc(N)nc4ccccc34)c(F)c3nc(OC[C@]45CCN4CC(F)(F)C5)nc(c23)N2C[C@H]3CC[C@H](N3)[C@@H]12 [Compound 79, 4-((5S,5aS,6S,9R)-12-(((R)-3,3-Difluoro-1-azabicyclo[3.2.0]heptan-5-yl)methoxy)-1-fluoro-5-methyl-5a,6,7,8,9,10-hexahydro-5H-4-oxa-3,10a,11,13,14-pentaaza-6,9-methanonaphtho[1,8-ab]heptalen-2-yl)quinolin-2-amine] | 22.7 nM | 1530 nM | – | – | – | 4040 nM | – | – | – | 954 nM | 20000 nM | –
14 | Cc1ccnc(-c2nc3c4c(nc(OC[C@]56CCN5CC(F)(F)C6)nc4c2F)N2C[C@H]4CC[C@H](N4)[C@H]2[C@H](C)O3)c1C(F)(F)F [Compound 88, (5S,5aS,6S,9R)-12-(((R)-3,3-Difluoro-1-azabicyclo[3.2.0]heptan-5-yl)methoxy)-1-fluoro-5-methyl-2-(4-methyl-3-(trifluoromethyl)pyridin-2-yl)-5a,6,7,8,9,10-hexahydro-5H-4-oxa-3,10a,11,13,14-pentaaza-6,9-methanonaphtho[1,8-ab]heptalene] | 1470 nM | 1620 nM | 20000 nM | – | – | – | – | – | – | – | – | 20000 nM

Reference: US20240025919A1, “AZA-TETRACYCLIC OXAZEPINE COMPOUNDS AND USES THEREOF” (Genentech, Inc., priority 2022, published 2024)
